In US7435727B2, “Method for isolating an intestinal cholesterol binding protein” (Sanofi-Aventis Deutschland GmbH, priority 2002, dated 2008):

What was measured:
[1] = tested on: intestinal cholesterol absorption; experiment: Inhibition of intestinal cholesterol absorption (modified Zilversmit/Hughes method); type: in vivo; conditions: NMRI mice, application of the biotin-tagged photoaffinity label
Method: Intestinal cholesterol absorption was determined by a modification of the Zilversmit/Hughes method. Male NMRI mice (Charles River Deutschland GmbH, Salzfeld, Germany) kept on regular chow (Altronin®, Lage, Germany) were starved for 12 hours. Then, 0.5 ml of a solution of 0.5% methylcellulose/5% Solutol (BASF, Ludwigshafen, Germany) as vehicle with or without 3 mg of the respective cholesterol absorption inhibitor were applied by gavage to each animal followed by 0.25 ml of Intralipid® (Pharmacia & Upjohn, Erlangen, Germany) solution containing 0.24 μCi [^14C]cholesterol and 0.25 μCi [^3H]sitosterol. The animals (five mice per group) were kept on metabolism cages and feces were collected. After 24 hours the animals were killed and the radioactivity in the feces and the liver was determined by combustion analysis.
(§1) For a one-step purification of the target-protein for cholesterol absorption inhibitors we have coupled the biotin-containing photolabile group N-(biotinyl)-4-azidophenyl alanine via a spacer to the para-position of the N-phenyl or benzylamino ring of 2-azetidinone cholesterol absorption inhibitors.

[2] = tested on: 145 kDa binding protein for cholesterol absorption inhibitors; experiment: Photoaffinity labeling of small intestinal BBMV with [3H]C-1 in the presence of competitor; conditions: rabbit small intestinal BBMV, increasing concentrations of competitor
Method: 8 Samples of rabbit ileal brush border membrane vesicles (250 μg of protein) were incubated with 66 nM (0.3 μCi) of [^3H]C-1 in 10 mM Tris/Hepes buffer (pH 7.4)/100 mM NaCl/100 mM mannitol for 30 min at 20° C. in the dark. After irradiation for 30 sec at 254 nm in a Rayonet RPR 100 photochemical reactor equipped with 4 RPR 2537 Å lamps (The Southern Ultraviolet Company, Hamden, Conn., USA) the samples were collected and after centrifugation the membrane vesicles were resuspended in 2 ml 10 mM Tris/Hepes buffer (pH 7.4)/300 mM mannitol and centrifugated after 20 min at 20° C. This procedure was repeated three times. The resulting pellet was solubilized with 2 ml “solubilization buffer”. After centrifugation, a 40 μl aliquot of the supernatant was removed and analyzed by SDS PAGE and subsequent slicing of the gel for incorporation of radioactivity into membrane proteins.
as §1

[3] = tested on: 145 kDa binding protein for cholesterol absorption inhibitors; experiment: Photoaffinity labeling with biotin-tagged C-4 and extraction with streptavidin beads; parameters: species or system rabbit
Method: 10 Samples of rabbit ileal brush border membrane vesicles (200 µg of protein) were incubated with 200 μM of the biotin-tagged cholesterol inhibitor C-4 in 10 mM Tris/Hepes buffer (pH 7.4)/100 mM NaCl/100 mM mannitol for 30 min in the dark at 20° C. followed by irradiation at 254 nm for 30 sec in a Rayonet RPR-100 photochemical reactor equipped with 4 RPR 2537 Å-lamps. After collecting, the vesicles were washed 3 times with 2 ml Tris/Hepes buffer (pH 7.4)/300 mM mannitol. The final pellet was suspended in 2 ml of “solubilization buffer” for 1 hour at 4° C. After centrifugation, the clear supernatant was mixed with 0.5 ml of streptavidin-agarose beads and kept under stirring at 4° C. for 2 hours. After centrifugation, the beads were incubated with 2 ml 10 mM Tris/Hepes buffer (pH 7.4)/300 mM mannitol/1% n-octylglucoside/4 mM PMSF/4 mM iodacetamide/4 mM EDTA/for 10 min at 4° C. followed by centrifugation. After repeating this procedure twice, proteins were eluted from the streptavidin-agarose beads with 3 portions a 2 ml of the above buffer containing 5 mM biotin. From all eluates aliquots were removed for the determination of the enzymatic activity of aminopeptidase N and sucrase and for analysis by SDS-PAGE. For final purification the biotin eluates containing the covalently modified 145 kDa binding protein for cholesterol absorption inhibitors was achieved by preparative SDS gel electrophoresis as described above.
Rabbit small intestinal BBMV were incubated with 200 μM of C-4 and crosslinking was achieved by ultraviolet irradiation at 254 nm. After solubilization the covalently modified proteins containing the biotin-tagged 2-azetidinone cholesterol absorption inhibitors were extracted with streptavidin-beads. After intensive washing bound proteins were eluted with a 10 mM solution of biotin and analyzed by SDS-PAGE. […] Therefore, the 145 kDa binding protein could only be purified from those anatomical sites where intestinal cholesterol absorption occurs, the duodenum, jejunum and ileum. […]

Row | extent of labeling of the 145 kDa-protein by [3H]C-1 [2] | amount of 145 kDa protein extractable with streptavidin beads ([3]; competitor present during photolabeling with C-4, 200 μM for cholesterol absorption inhibitors) | SMILES | intestinal cholesterol absorption [1] | 145 kDa protein retarded by streptavidin beads after labeling of membranes from other organs ([3]; BBMV from stomach, cecum, colon, rectum, kidney, liver or adipocytes) | proteins retained by the streptavidin-beads after crosslinking ([3]; rabbit small intestinal BBMV, 200 μM C-4, ultraviolet irradiation at 254 nm, SDS-PAGE)
1 | concentration-dependent decrease | – | COc1ccc(C2C(CC[C@H](O)c3ccccc3)C(=O)N2c2ccc(NC(=O)CCCCNC(=O)C(Cc3ccc(N=[N+]=[N-])cc3)NC(=O)CCCCC3SCC4NC(=O)NC43)cc2)cc1 (some centres unmarked) [C-4, 5-(2-Oxo-hexahydro-thieno[3,4-d]imidazol-6-yl)-pentanoic acid-[2-(4-azido-phenyl)-1-(4-{4-[3-(3-hydroxy-3-phenyl-propyl)-2-(4-methoxy-phenyl)4-oxo-azetidin-1-yl]-phenylcarbamoyl}-butylcarbamoyl)-ethyl]-amid] | dose-dependently inhibited | no 145 kDa protein was retarded by streptavidin beads | Predominantly one protein of Mr 145 kDa was retained
2 | – | reduced | O=C1[C@H](CC[C@H](O)c2ccc(F)cc2)[C@@H](c2ccc(O)cc2)N1c1ccc(F)cc1 [Ezetimibe, reference compound] | – | – | –
